In paper PMC6403188, “Species-Specific Structural Requirements of Alpha-Branched Trehalose Diester Mincle Agonists” (Frontiers in Immunology, 2019):

What was measured:
[1] = system: primary human PBMCs; assay: Cytokine production from primary human PBMCs (multiplex); assay type: cell-based; settings: plate-coated compound, 24 h, 5 individual donors
From the text: PBMCs were obtained via leukapheresis from normal donors (AllCells, Berkeley, CA) or fresh blood was obtained from health human donors through a University of Montana Institutional Review Board (IRB) approved protocol. PBMCs obtained via leukapheresis were washed in 1x PBS and cryopreserved in freezing media (50% RPMI, 40% FCS, 10% DMSO) for future use. PBMCs from on-site human donors were separated from whole blood via density gradient separation using Histopaque 1077 (Sigma). Cells were washed in RPMI media containing 10% heat inactivated FBS, penicillin/streptomycin/glutamine (complete media) and resuspended at the desired cell concentration in complete media. Cells were treated with the indicated compound concentrations by addition to plates coated with a serial dilution of the stock compound in diluent (50% isopropanol/50% isooctane, fully evaporated).
(§1) Supernatants were harvested from treated cells following 18–24 h of incubation. Supernatants were analyzed using a DuoSet TNFα ELISA (R&D Systems, Minneapolis, MN) or Luminex multiplex panel for analytes TNFα, IL-1β, IL-6, IFNγ, IL-12p70, and IL-23 (R&D Systems) per the manufacturer's instructions. Multiplex analysis was performed using a Luminex 200 instrument (Luminex Corporation) and analyzed with StarStation2.3 software. ELISAs were read on a plate reader at 450 nm and cytokine concentration was calculated by fitting the standard curve OD values to a 4-parameter logistical model using curve fitting software (XLfit, IDBS, Alameda, CA).
To determine if the abridged cytokine repertoire induced by the compounds from the cell lines was a cell-specific or compound-specific phenomenon, the response of a heterogeneous primary human PBMCs to the αTDE compound library was also evaluated. Primary human PBMCs were incubated with the αTDE compound and supernatants were evaluated by multiplex cytokine ELISA for TNFα, IL-1β, IL-23, IL-6 (Th17 associated) and IFNγ and IL-12p70 (Th1 associated). As with THP-1 cells, robust dose-responsive induction of TNFα and IL-1β was detected, but unlike the THP-1 cells dose-responsive stimulation of IL-6 and IL-23 production was also noted in response to a subset of the αTDE compounds (Figure 5). No production of the Th1-associated IFNγ or IL-12p70 were detected (data not shown). […] Consistent with the previous THP-1 cell responses, the longer chain length compounds, B32-B46, induced minimal cytokine responses only at the highest dose evaluated (Figure 5, right graphs).
Figure 5 Cytokine production from primary human mononuclear cells in response to stimulation with synthetic trehalose diester compounds. […] Cryopreserved PBMCs were thawed and applied to the compound-coated plates and incubated at 37°C; supernatant was harvested 24 h later and analyzed for TNFα, IL-1β, IL-23, IL-6. […]

[2] = molecular target: T1, mouse Mincle (Mus musculus, UniProt Q9R0Q8); assay: HEK cells expressing mouse Mincle with NF-κB-driven SEAP reporter; assay type: cell-based; settings: for EC50: average calculated EC50, n = 3, read-out: mMincle EC50 (converted); for EC50 / SEAP induction / activation of mouse Mincle-expressing HEK cells (in words): plate-coated compound, 24 h; for Relative activity in mouse vs. human Mincle HEK cells: comparison of mouse and human Mincle receptor transfected HEK cells
T1 construct: host or cells: HEK (HEK-Blue) cells with NF-κB-driven SEAP reporter
T1 sequence (Q9R0Q8 1-214): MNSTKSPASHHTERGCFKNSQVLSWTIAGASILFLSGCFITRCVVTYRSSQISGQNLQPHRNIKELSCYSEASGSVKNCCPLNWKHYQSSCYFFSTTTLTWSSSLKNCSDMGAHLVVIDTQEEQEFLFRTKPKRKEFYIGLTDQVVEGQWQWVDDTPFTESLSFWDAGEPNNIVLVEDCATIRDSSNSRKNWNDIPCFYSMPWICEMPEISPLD
Protocol: (§2) Human and mouse Mincle expressing HEK cells were obtained from Invivogen (San Diego, CA). Cells were cultured according to the manufactures instructions in DMEM with 10% FBS, 50 U/ml penicillin, […] streptomycin, […] Normocin, 2 mM L-glutamine, 30 μg/ml blasticidin, 1 μg/ml puromycin and 1x HEK-Blue™ CLR Selection. For assay, indicated compounds were serially diluted in diluent (50%IPA/50% isooctane), 20 μl of a 10x final concentration were applied to the bottom of a 96-well tissue culture plate and the solvent was evaporated for >1 h in a biosafety hood. HEK cells were applied to the plates at a density of 3 × 10^5 cells/well and incubated for 18–24 h at 37°C. Cell supernatants were harvested and analyzed via the manufacturer's instructions using Hek-Blue^TM Detection. SEAP activity was assessed by reading the optical density (OD) at 620–655 nm with a microplate reader; data are expressed as the fold change in OD over vehicle treated cells.
(§3) To investigate the capacity of these molecules to bind to and activate the Mincle receptor, we used human embryonic kidney (HEK) cells expressing the human or mouse Mincle receptor along with an NF-κB-driven secreted embryonic alkaline phosphatase (SEAP) reporter. Many of the αTDE compounds were able to induce production of SEAP in a dose dependent manner (Figure 2). HEK null cells (HEK cells containing the NF-kB reporter without Mincle receptor) were used as a negative controls to confirm the receptor specificity of the compounds in HEK cells expressing human or mouse Mincle reporter (Supplemental Figure 4). […] The relative activity of TDM and TDB in the human and mouse HEK cells is consistent with the results reported by others ([20]). […] This synthetic version is a shorter chain version of the lipid-derived one reported to be “human-specific” ([28]).
(§4) Figure 2 Activation of human or mouse Mincle in response to synthetic αTDE compounds. The indicated compounds were dissolved in 50% isopropanol/isooctane, serially diluted in vehicle and then dried to the bottom of a tissue culture plate. HEK cells transfected with human (A–C) or mouse (D–F) Mincle and an NF-κB-driven SEAP reporter were incubated with the compounds for 24 h followed by assessment of the supernatants for SEAP levels. Data are represented as fold change in OD650 over vehicle treated cells. Graphs are mean values from three independent experiments ± SEM. Table in (G) represents the average calculated EC50 and average max SEAP value (± SD, n = 3) for each compound in each cell line. […]

[3] = system: Hek Blue human or mouse Mincle-expressing cells; assay type: cell-based; settings: top concentrations, 24 h; compared with vehicle only-treated cells
[4] = molecular target: T2, human Mincle (Homo sapiens, UniProt Q9ULY5); assay: HEK cells expressing human Mincle with NF-κB-driven SEAP reporter; assay type: cell-based; settings: plate-coated compound, 24 h; for EC50: average calculated EC50, n = 3, read-out: hMincle EC50 (converted)
T2 construct: host or cells: HEK (HEK-Blue) cells with NF-κB-driven SEAP reporter
T2 sequence (Q9ULY5 1-219): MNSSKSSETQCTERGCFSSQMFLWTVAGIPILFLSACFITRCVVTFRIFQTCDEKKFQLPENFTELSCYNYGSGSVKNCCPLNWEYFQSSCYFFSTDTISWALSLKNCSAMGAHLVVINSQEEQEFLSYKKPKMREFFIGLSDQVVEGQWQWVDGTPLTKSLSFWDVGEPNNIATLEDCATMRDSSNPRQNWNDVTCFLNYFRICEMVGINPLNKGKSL
Protocol: as §2, §3, §4

[5] = system: THP-1 cells; assay: TNFα production from THP-1 cells (ELISA); assay type: cell-based, human; settings: plate-coated compound, 24 h
Protocol: as §1
Next, investigation into activity of the alpha-branched TDE compounds was extended to include both human and murine monocytic cell lines, THP-1 and RAW264.7, respectively. These cell lines have previously been reported as responsive to the Mincle receptor agonists TDM and TDB ([30], [31]).
Figure 3 TNFα production from human THP-1 cells in response to stimulation with synthetic αTDE compounds. The indicated compounds were dissolved in 50% isopropanol/isooctane, serially diluted in vehicle and then dried to the bottom of a tissue culture plate. THP-1 cells were applied to the compound-coated plates and incubated at 37°C; supernatant was harvested 24 h later and analyzed for TNFα via ELISA (A-E). Results from the 200 μg/ml concentration vs. each compounds acyl chain length are shown in (F). Data points are average of at least two independent experiments ± SD.

SMILES	EC50 [2]	Cell viability of Mincle HEK cells [3]	EC50 [4]	other results
CC(C)C(=O)OC[C@H]1O[C@H](O[C@H]2O[C@H](COC(=O)C(C)C)[C@@H](O)[C@H](O)[C@H]2O)[C@H](O)[C@@H](O)[C@@H]1O [Compound B4]				Th17-associated cytokine production (TNFα, IL-1β, IL-6, IL-23) from human PBMCs [1]: mixed responses
CCCCCC(CCCCC)C(=O)OC[C@H]1O[C@H](O[C@H]2O[C@H](COC(=O)C(CCCCC)CCCCC)[C@@H](O)[C@H](O)[C@H]2O)[C@H](O)[C@@H](O)[C@@H]1O [Compound B12]	1260 nM	marked decreases in viability		
CCCCCCC(CCCCCC)C(=O)OC[C@H]1O[C@H](O[C@H]2O[C@H](COC(=O)C(CCCCCC)CCCCCC)[C@@H](O)[C@H](O)[C@H]2O)[C@H](O)[C@@H](O)[C@@H]1O [Compound B14]	1520 nM	less substantial decreases		
CCCCCCCCC(CCCCCCCC)C(=O)OC[C@H]1O[C@H](O[C@H]2O[C@H](COC(=O)C(CCCCCCCC)CCCCCCCC)[C@@H](O)[C@H](O)[C@H]2O)[C@H](O)[C@@H](O)[C@@H]1O [Compound B18]	599 nM	less substantial decreases	405 nM	
CCCCCCCCCC(CCCCCCCCC)C(=O)OC[C@H]1O[C@H](O[C@H]2O[C@H](COC(=O)C(CCCCCCCCC)CCCCCCCCC)[C@@H](O)[C@H](O)[C@H]2O)[C@H](O)[C@@H](O)[C@@H]1O [Compound B20]	328 nM	less substantial decreases	128 nM	
CCCCCCCCCCC(CCCCCCCCCC)C(=O)OC[C@H]1O[C@H](O[C@H]2O[C@H](COC(=O)C(CCCCCCCCCC)CCCCCCCCCC)[C@@H](O)[C@H](O)[C@H]2O)[C@H](O)[C@@H](O)[C@@H]1O [Compound B22]	689 nM	less substantial decreases	322 nM	
CCCCCCCCCCCC(CCCCCCCCCCC)C(=O)OC[C@H]1O[C@H](O[C@H]2O[C@H](COC(=O)C(CCCCCCCCCCC)CCCCCCCCCCC)[C@@H](O)[C@H](O)[C@H]2O)[C@H](O)[C@@H](O)[C@@H]1O [Compound B24]	608 nM	less substantial decreases	92.6 nM	
CCCCCCCCCCCCC(CCCCCCCCCCCC)C(=O)OC[C@H]1O[C@H](O[C@H]2O[C@H](COC(=O)C(CCCCCCCCCCCC)CCCCCCCCCCCC)[C@@H](O)[C@H](O)[C@H]2O)[C@H](O)[C@@H](O)[C@@H]1O [Compound B26]	907 nM		263 nM	TNFα induction from THP-1 cells (in words) [5]: roughly equivalent levels of TNFα as B14/B16
CCCCCCCCCCCCCC(CCCCCCCCCCCCC)C(=O)OC[C@H]1O[C@H](O[C@H]2O[C@H](COC(=O)C(CCCCCCCCCCCCC)CCCCCCCCCCCCC)[C@@H](O)[C@H](O)[C@H]2O)[C@H](O)[C@@H](O)[C@@H]1O [Compound B28]	592 nM		77.4 nM	
CCCCCCCCCCCCCCC(CCCCCCCCCCCCCC)C(=O)OC[C@H]1O[C@H](O[C@H]2O[C@H](COC(=O)C(CCCCCCCCCCCCCC)CCCCCCCCCCCCCC)[C@@H](O)[C@H](O)[C@H]2O)[C@H](O)[C@@H](O)[C@@H]1O [Compound B30]	955 nM		43.8 nM	
CCCCCCCCCCCCCCCC(CCCCCCCCCCCCCCC)C(=O)OC[C@H]1O[C@H](O[C@H]2O[C@H](COC(=O)C(CCCCCCCCCCCCCCC)CCCCCCCCCCCCCCC)[C@@H](O)[C@H](O)[C@H]2O)[C@H](O)[C@@H](O)[C@@H]1O [Compound B32]	64.4 nM		50.2 nM	
CCCCCCCCCCCCCCCCCC(CCCCCCCCCCCCCCCCC)C(=O)OC[C@H]1O[C@H](O[C@H]2O[C@H](COC(=O)C(CCCCCCCCCCCCCCCCC)CCCCCCCCCCCCCCCCC)[C@@H](O)[C@H](O)[C@H]2O)[C@H](O)[C@@H](O)[C@@H]1O [Compound B36]	25800 nM		21400 nM	
CCCCCCCCCCCCCCCC(O)C(CCCCCCCCCCCCCC)C(=O)OCC(O)CO (stereo not drawn) [MMG, synthetic glycerol monomycolate, reference compound]				Relative activity in mouse vs. human Mincle HEK cells [2]: more potent in mouse Mincle HEK cells; SEAP induction / activation of mouse Mincle-expressing HEK cells (in words) [2]: able to activate; SEAP induction / activation of human Mincle-expressing HEK cells (in words) [4]: able to activate; TNFα induction from THP-1 cells (in words) [5]: potent, robust induction of TNFα
CCCCCCCCCCCCCCCC(O)C(CCCCCCCCCCCCCC)C(=O)OC[C@H]1O[C@H](O[C@H]2O[C@H](COC(=O)C(CCCCCCCCCCCCCC)C(O)CCCCCCCCCCCCCCC)[C@@H](O)[C@H](O)[C@H]2O)[C@H](O)[C@@H](O)[C@@H]1O (stereo partly drawn) [sTDCM, synthetic trehalose dicorynomycolate, reference compound]				Relative activity in mouse vs. human Mincle HEK cells [2]: more potent in the mouse vs. the human; SEAP induction / activation of mouse Mincle-expressing HEK cells (in words) [2]: robust ability to activate; SEAP induction / activation of human Mincle-expressing HEK cells (in words) [4]: robust ability to activate; TNFα induction from THP-1 cells (in words) [5]: potent, robust induction of TNFα
